Data taken from patent US6723364B1, “Fog treatment method using a liquid composition for treating fruits and vegetables and implementing device” (Xeda International, priority 1998, dated 2004).

System: potato tubers
Experiment: Sprouting-inhibiting treatment of potato tubers by thermal fogging
Type: in vivo
Settings: after 5 months; cold room 8 to 9° C.; 45 g/tonne then 15 g/tonne every 20 days by thermal fogging
Protocol: The effectiveness of eugenol and of isoeugenol in the sprouting-inhibiting treatment of potato tubers was evaluated and compared with that of other terpenes.
The following compositions were used in the case of eucalyptol, eugenol, isoeugenol, limonene, safrole and terpineol:
60% by weight of terpene;
7% by weight of a nonionic emulsifier;
33% by weight of butyl acetate.
In the case of L-carvone, the following composition was employed:
30% by weight of L-carvone;
10% by weight of ethanol;
5% by weight of nonionic emulsifier;
35% by weight of propylene glycol.
Isopropyl chlorophenylcarbamate (CIPC) is a compound used in the art as sprouting inhibitor for potato tubers. Its activity was compared with that of eugenol and of isoeugenol.
The composition based on isopropyl chloro-phenylcarbamate has the following formulation: […]
20% by weight of isopropyl chlorophenyl-carbamate;
50% by weight of propylene glycol;
10% by weight of nonionic emulsifier;
Each of the compositions tested was applied by thermal fogging. The temperature at the outlet of the thermal fogging device was 240° C., except in the case of the compositions based on L-carvone and on CIPC, where it was 180° C.
The amount of composition which has to be applied is calculated in each case so as to obtain an equivalent concentration of active material on the potato tubers.
In this example, repeated applications were carried out by following the following protocol:
45 g/tonne of tubers at the beginning of storage;
15 g/tonne of tubers every 20 days; so that, after 6 months, 165 g of active principle have been applied per tonne of tubers.
During storage, the tubers were stored in a cold room at a temperature of 8 to 9° C.

Molecule: C=C(C)[C@H]1CC=C(C)CC1 [LIMONENE, limonene]
- Loss in weight of the tubers: 4.5%
- Total weight of the sprouts >2 mm: 283.8 g
- Tubers at the white point stage: 1.2%
- Tubers with sprouts 2 to 5 mm: 8.7%
- Tubers with sprouts <2 mm: 1.5%
- Tubers with sprouts >2 mm: 96.8%
- Tubers with sprouts >5 mm: 88.1%
- Unsprouted tubers: 0.5%

Molecule: L-carvone
- Loss in weight of the tubers: 3.3%
- Total weight of the sprouts >2 mm: 42.0 g
- Tubers at the white point stage: 8.7%
- Tubers with sprouts 2 to 5 mm: 28.8%
- Tubers with sprouts <2 mm: 32.3%
- Tubers with sprouts >2 mm: 55.0%
- Tubers with sprouts >5 mm: 26.2%
- Unsprouted tubers: 4.0%
